Legend:
Assay in all cases: Test A pre-/postemergence greenhouse herbicide test, visual injury rating 0-100
Assay type in all cases: in vivo
[1] = system: giant foxtail (Setaria faberii)
Excerpt: (§1) Seeds of plant species selected from barnyardgrass (Echinochloa crus-galli), large (Lg) crabgrass (Digitaria sanguinalis), giant foxtail (Setaria faberii), morningglory (Ipomoea spp.), pigweed (Amaranthus retroflexus), velvetleaf (Abutilon theophrasti), wheat (Triticum aestivum), and corn (Zea mays) were planted into a blend of loam soil and sand and treated preemergence with a directed soil spray using test chemicals formulated in a non-phytotoxic solvent mixture which included a surfactant. At the same time these species were also treated with postemergence applications of test chemicals formulated in the same manner. Plants ranged in height from 2 to 10 cm and were in the one- to two-leaf stage for the postemergence treatment. Treated plants and untreated controls were maintained in a greenhouse for approximately 10 days, after which time all treated plants were compared to untreated controls and visually evaluated for injury. Plant response ratings, summarized in Table A, are based on a 0 to 100 scale where 0 is no effect and 100 is complete control. A dash (-) response means no test result.

[2] = system: wheat (Triticum aestivum)
Excerpt: as §1

corn (Zea mays) = system: corn (Zea mays)
Excerpt: as §1

[3] = system: velvetleaf (Abutilon theophrasti)
Excerpt: as §1

[4] = system: large (Lg) crabgrass (Digitaria sanguinalis)
Excerpt: as §1

[5] = system: morningglory (Ipomoea spp.)
Excerpt: as §1

[6] = system: pigweed (Amaranthus retroflexus)
Excerpt: as §1

[7] = system: barnyardgrass (Echinochloa crus-galli)
Excerpt: as §1

Clc1cc(Cl)cc(-c2n[nH]cc2C2(c3ccccc3)SCCCS2)c1 [Compound 63]
Plant response rating (0 to 100 scale), Foxtail, Giant ([1]; Postemergence, 125 g ai/ha): 0 | Plant response rating (0 to 100 scale), Foxtail, Giant ([1]; Postemergence, 500 g ai/ha): 0 | Foxtail, Giant plant response rating (0 = no effect, 100 = complete control) ([1]; Preemergence, 125 g ai/ha): 0 | Plant response rating (0 to 100 scale), Foxtail, Giant ([1]; Preemergence, 500 g ai/ha): 0 | Plant response rating (0 to 100 scale), Wheat ([2]; Postemergence, 125 g ai/ha): 0 | Plant response rating (0 to 100 scale), Wheat ([2]; Postemergence, 500 g ai/ha): 0 | Wheat plant response rating (0 = no effect, 100 = complete control) ([2]; Preemergence, 125 g ai/ha): 0 | Plant response rating (0 to 100 scale), Corn (corn (Zea mays); Postemergence, 125 g ai/ha): 0 | Plant response rating (0 to 100 scale), Corn (corn (Zea mays); Postemergence, 500 g ai/ha): 0 | Corn plant response rating (0 = no effect, 100 = complete control) (corn (Zea mays); Preemergence, 125 g ai/ha): 0 | Plant response rating (0 to 100 scale), Corn (corn (Zea mays); Preemergence, 500 g ai/ha): 0 | Plant response rating (0 to 100 scale), Velvetleaf ([3]; Postemergence, 125 g ai/ha): 10 | Plant response rating (0 to 100 scale), Velvetleaf ([3]; Postemergence, 500 g ai/ha): 60 | Velvetleaf plant response rating (0 = no effect, 100 = complete control) ([3]; Preemergence, 125 g ai/ha): 0 | Plant response rating (0 to 100 scale), Velvetleaf ([3]; Preemergence, 500 g ai/ha): 0 | Plant response rating (0 to 100 scale), Crabgrass, Large ([4]; Postemergence, 125 g ai/ha): 0 | Plant response rating (0 to 100 scale), Crabgrass, Large ([4]; Postemergence, 500 g ai/ha): 0 | Crabgrass, Large plant response rating (0 = no effect, 100 = complete control) ([4]; Preemergence, 125 g ai/ha): 0 | Plant response rating (0 to 100 scale), Crabgrass, Large ([4]; Preemergence, 500 g ai/ha): 0 | Plant response rating (0 to 100 scale), Morningglory ([5]; Postemergence, 125 g ai/ha): 0 | Plant response rating (0 to 100 scale), Morningglory ([5]; Postemergence, 500 g ai/ha): 0 | Morningglory plant response rating (0 = no effect, 100 = complete control) ([5]; Preemergence, 125 g ai/ha): 0 | Plant response rating (0 to 100 scale), Morningglory ([5]; Preemergence, 500 g ai/ha): 0 | Plant response rating (0 to 100 scale), Pigweed ([6]; Postemergence, 125 g ai/ha): 20 | Plant response rating (0 to 100 scale), Pigweed ([6]; Postemergence, 500 g ai/ha): 80 | Pigweed plant response rating (0 = no effect, 100 = complete control) ([6]; Preemergence, 125 g ai/ha): 0 | Plant response rating (0 to 100 scale), Pigweed ([6]; Preemergence, 500 g ai/ha): 60 | Plant response rating (0 to 100 scale), Barnyardgrass ([7]; Postemergence, 125 g ai/ha): 0 | Plant response rating (0 to 100 scale), Barnyardgrass ([7]; Postemergence, 500 g ai/ha): 0 | Barnyardgrass plant response rating (0 = no effect, 100 = complete control) ([7]; Preemergence, 125 g ai/ha): 0 | Plant response rating (0 to 100 scale), Barnyardgrass ([7]; Preemergence, 500 g ai/ha): 0

CON=C(c1ccccc1)c1c[nH]nc1-c1cc(Cl)cc(Cl)c1 [Compound 64]
Plant response rating (0 to 100 scale), Foxtail, Giant ([1]; Postemergence, 1000 g ai/ha): 0 | Plant response rating (0 to 100 scale), Foxtail, Giant ([1]; Preemergence, 1000 g ai/ha): 0 | Plant response rating (0 to 100 scale), Wheat ([2]; Postemergence, 1000 g ai/ha): 0 | Plant response rating (0 to 100 scale), Wheat ([2]; Preemergence, 1000 g ai/ha): 0 | Plant response rating (0 to 100 scale), Corn (corn (Zea mays); Postemergence, 1000 g ai/ha): 0 | Plant response rating (0 to 100 scale), Corn (corn (Zea mays); Preemergence, 1000 g ai/ha): 0 | Plant response rating (0 to 100 scale), Velvetleaf ([3]; Postemergence, 1000 g ai/ha): 80 | Plant response rating (0 to 100 scale), Velvetleaf ([3]; Preemergence, 1000 g ai/ha): 0 | Plant response rating (0 to 100 scale), Crabgrass, Large ([4]; Postemergence, 1000 g ai/ha): 0 | Plant response rating (0 to 100 scale), Crabgrass, Large ([4]; Preemergence, 1000 g ai/ha): 0 | Plant response rating (0 to 100 scale), Morningglory ([5]; Postemergence, 1000 g ai/ha): 0 | Plant response rating (0 to 100 scale), Morningglory ([5]; Preemergence, 1000 g ai/ha): 0 | Plant response rating (0 to 100 scale), Pigweed ([6]; Postemergence, 1000 g ai/ha): 80 | Plant response rating (0 to 100 scale), Pigweed ([6]; Preemergence, 1000 g ai/ha): 0 | Plant response rating (0 to 100 scale), Barnyardgrass ([7]; Postemergence, 1000 g ai/ha): 0 | Plant response rating (0 to 100 scale), Barnyardgrass ([7]; Preemergence, 1000 g ai/ha): 0

N=C(c1ccccc1)c1c[nH]nc1-c1cc(Cl)cc(Cl)c1 [Compound 68]
Plant response rating (0 to 100 scale), Foxtail, Giant ([1]; Postemergence, 1000 g ai/ha): 0 | Plant response rating (0 to 100 scale), Foxtail, Giant ([1]; Preemergence, 1000 g ai/ha): 0 | Plant response rating (0 to 100 scale), Wheat ([2]; Postemergence, 1000 g ai/ha): 0 | Plant response rating (0 to 100 scale), Wheat ([2]; Preemergence, 1000 g ai/ha): 0 | Plant response rating (0 to 100 scale), Corn (corn (Zea mays); Postemergence, 1000 g ai/ha): 0 | Plant response rating (0 to 100 scale), Corn (corn (Zea mays); Preemergence, 1000 g ai/ha): 0 | Plant response rating (0 to 100 scale), Velvetleaf ([3]; Postemergence, 1000 g ai/ha): 90 | Plant response rating (0 to 100 scale), Velvetleaf ([3]; Preemergence, 1000 g ai/ha): 100 | Plant response rating (0 to 100 scale), Crabgrass, Large ([4]; Postemergence, 1000 g ai/ha): 0 | Plant response rating (0 to 100 scale), Crabgrass, Large ([4]; Preemergence, 1000 g ai/ha): 0 | Plant response rating (0 to 100 scale), Morningglory ([5]; Postemergence, 1000 g ai/ha): 0 | Plant response rating (0 to 100 scale), Morningglory ([5]; Preemergence, 1000 g ai/ha): 0 | Plant response rating (0 to 100 scale), Pigweed ([6]; Postemergence, 1000 g ai/ha): 100 | Plant response rating (0 to 100 scale), Pigweed ([6]; Preemergence, 1000 g ai/ha): 100 | Plant response rating (0 to 100 scale), Barnyardgrass ([7]; Postemergence, 1000 g ai/ha): 0 | Plant response rating (0 to 100 scale), Barnyardgrass ([7]; Preemergence, 1000 g ai/ha): 0

Clc1cc(Cl)cc(-c2n[nH]cc2C2(c3ccccc3)SCCS2)c1 [Compound 69]
Plant response rating (0 to 100 scale), Foxtail, Giant ([1]; Postemergence, 125 g ai/ha): 0 | Plant response rating (0 to 100 scale), Foxtail, Giant ([1]; Postemergence, 500 g ai/ha): 0 | Foxtail, Giant plant response rating (0 = no effect, 100 = complete control) ([1]; Preemergence, 125 g ai/ha): 0 | Plant response rating (0 to 100 scale), Foxtail, Giant ([1]; Preemergence, 500 g ai/ha): 0 | Plant response rating (0 to 100 scale), Wheat ([2]; Postemergence, 125 g ai/ha): 0 | Plant response rating (0 to 100 scale), Wheat ([2]; Postemergence, 500 g ai/ha): 0 | Wheat plant response rating (0 = no effect, 100 = complete control) ([2]; Preemergence, 125 g ai/ha): 0 | Plant response rating (0 to 100 scale), Corn (corn (Zea mays); Postemergence, 125 g ai/ha): 0 | Plant response rating (0 to 100 scale), Corn (corn (Zea mays); Postemergence, 500 g ai/ha): 0 | Corn plant response rating (0 = no effect, 100 = complete control) (corn (Zea mays); Preemergence, 125 g ai/ha): 0 | Plant response rating (0 to 100 scale), Corn (corn (Zea mays); Preemergence, 500 g ai/ha): 0 | Plant response rating (0 to 100 scale), Velvetleaf ([3]; Postemergence, 125 g ai/ha): 20 | Plant response rating (0 to 100 scale), Velvetleaf ([3]; Postemergence, 500 g ai/ha): 80 | Velvetleaf plant response rating (0 = no effect, 100 = complete control) ([3]; Preemergence, 125 g ai/ha): 0 | Plant response rating (0 to 100 scale), Velvetleaf ([3]; Preemergence, 500 g ai/ha): 20 | Plant response rating (0 to 100 scale), Crabgrass, Large ([4]; Postemergence, 125 g ai/ha): 0 | Plant response rating (0 to 100 scale), Crabgrass, Large ([4]; Postemergence, 500 g ai/ha): 0 | Crabgrass, Large plant response rating (0 = no effect, 100 = complete control) ([4]; Preemergence, 125 g ai/ha): 0 | Plant response rating (0 to 100 scale), Crabgrass, Large ([4]; Preemergence, 500 g ai/ha): 0 | Plant response rating (0 to 100 scale), Morningglory ([5]; Postemergence, 125 g ai/ha): 0 | Plant response rating (0 to 100 scale), Morningglory ([5]; Postemergence, 500 g ai/ha): 0 | Morningglory plant response rating (0 = no effect, 100 = complete control) ([5]; Preemergence, 125 g ai/ha): 0 | Plant response rating (0 to 100 scale), Morningglory ([5]; Preemergence, 500 g ai/ha): 0 | Plant response rating (0 to 100 scale), Pigweed ([6]; Postemergence, 125 g ai/ha): 30 | Plant response rating (0 to 100 scale), Pigweed ([6]; Postemergence, 500 g ai/ha): 80 | Pigweed plant response rating (0 = no effect, 100 = complete control) ([6]; Preemergence, 125 g ai/ha): 0 | Plant response rating (0 to 100 scale), Pigweed ([6]; Preemergence, 500 g ai/ha): 40 | Plant response rating (0 to 100 scale), Barnyardgrass ([7]; Postemergence, 125 g ai/ha): 0 | Plant response rating (0 to 100 scale), Barnyardgrass ([7]; Postemergence, 500 g ai/ha): 0 | Barnyardgrass plant response rating (0 = no effect, 100 = complete control) ([7]; Preemergence, 125 g ai/ha): 0 | Plant response rating (0 to 100 scale), Barnyardgrass ([7]; Preemergence, 500 g ai/ha): 0

Reference: patent publication US10167262B2, “Herbicidal substituted 3-arylpyrazoles” (FMC CORPORATION, priority 2014, dated 2019)
